The source made the active and inactive calls. No cut-off for these calls is given here.

For one assay, the system named is HeLa. Briefly: Cytotoxicity against human HeLa cells assessed as growth inhibition at 50 uM after 48 hrs by sulforhodamine B assay relative to control. The class given is functional. To be noted: read-out: GI. For orientation: Sulforhodamine B stains cellular protein and so reports cell mass.
Assay [1] concerns PC-3. Briefly: Cytotoxicity against human PC3 cells assessed as growth inhibition at 50 uM after 48 hrs by sulforhodamine B assay relative to control. The class given is functional. The settings on record: PC-3, 48 h, read-out: GI.
The target of the next assay is Tubulin. Nature of the assay: Inhibition of tubulin (unknown origin) polymerization after 1 hr by ELISA plate reader analysis. Type of assay: protein-complex assay, Homo sapiens.
A further assay concerns CAKI-1. Nature of the assay: Cytotoxicity against human Caki1 cells assessed as growth inhibition at 50 uM after 48 hrs by sulforhodamine B assay relative to control. The class given is functional. The settings on record: CAKI-1, 48 h, read-out: GI.
The subject of assay [2] is PC-3. Nature of the assay: Cytotoxicity against human PC3 cells assessed as growth inhibition after 48 hrs by sulforhodamine B assay. Type of assay: functional, cell-based. To be noted: PC-3, 48 h.
For assay [3], the system named is COLO 205. Briefly: Cytotoxicity against human COLO205 cells assessed as growth inhibition after 48 hrs by sulforhodamine B assay. Type of assay: functional, cell-based. The settings on record: COLO 205, 48 h.
Assay [4] deals with COLO 205. Nature of the assay: Cytotoxicity against human COLO205 cells assessed as growth inhibition at 50 uM after 48 hrs by sulforhodamine B assay relative to control. The settings on record: COLO 205, 48 h, read-out: GI. Type of assay: functional.
Assay [5] is described as follows: Cytotoxicity against human MIAPaCa2 cells assessed as growth inhibition at 50 uM after 48 hrs by sulforhodamine B assay relative to control. The settings on record: MIA PaCa-2, 48 h, read-out: GI. The class given is functional.
The next assay relates to A549. Nature of the assay: Cytotoxicity against human A549 cells assessed as growth inhibition at 50 uM after 48 hrs by sulforhodamine B assay relative to control. To be noted: A549, 48 h, read-out: GI. The class given is functional.
Assay [6] concerns THP-1. Nature of the assay: Cytotoxicity against human THP1 cells assessed as growth inhibition after 48 hrs by sulforhodamine B assay. The class given is functional, cell-based. The settings on record: THP-1, 48 h.
Assay [7] deals with HCT-116. Briefly: Cytotoxicity against human HCT116 cells assessed as growth inhibition at 50 uM after 48 hrs by sulforhodamine B assay relative to control. The settings on record: HCT-116, 48 h, read-out: GI. Type of assay: functional.
The subject of assay [8] is HCT-116. Briefly: Cytotoxicity against human HCT116 cells assessed as growth inhibition after 48 hrs by sulforhodamine B assay. The settings on record: HCT-116, 48 h. Type of assay: functional, cell-based.
Assay [9] concerns THP-1. Briefly: Cytotoxicity against human THP1 cells assessed as growth inhibition at 50 uM after 48 hrs by sulforhodamine B assay relative to control. The class given is functional. To be noted: THP-1, 48 h, read-out: GI.
The test system of assay [10] is HCT-116. Briefly: Disruption of microtubule organization in human HCT116 cells at 5 uM after 48 hrs by DAPI staining-based laser scanning confocal microscopic analysis. Type of assay: cell-based.

What is called IC50 is the concentration that gives 50% inhibition. As to `COc1ccc(/C=C/C(=O)/C=C/c2ccc(OCc3cn(CCN4C(=O)C(=O)c5ccccc54)nn3)c(OC)c2)cc1OC`, the inhibition of growth at 50 µM was found to be 18% in the assay on HeLa; 79% with PC-3 [1]; 22% with CAKI-1; 80% in the assay on COLO 205 [4]; 21% in [5]; 19% in the assay on A549. Also, the inhibition of growth at 50 µM in the assay on HCT-116 [7] came to 90%; in the assay with THP-1 [9], 82%. The IC50 on Tubulin stood at 3.97 µM; in the assay on PC-3 [2], 7.64 µM; with COLO 205 [3], 5.78 µM; with THP-1 [6] it was 4.31 µM; in the assay on HCT-116 [8] it was 2.67 µM.
As for `COc1cc(/C=C/C(=O)/C=C/c2ccccc2)ccc1OCc1cn(CCN2C(=O)C(=O)c3ccccc32)nn1`, the inhibition of growth at 50 µM with HeLa is 12%; in the assay on PC-3 [1], 60%; in the assay on CAKI-1 it was 15%; in the assay on COLO 205 [4], 64%; in assay [5], 20%; with A549, 10%. Besides, the inhibition of growth at 50 µM turned out to be 71% with HCT-116 [7] and 66% with THP-1 [9]. Besides, the IC50 in the assay with PC-3 [2] came to 9.56 µM; with COLO 205 [3] it was 8.28 µM; in the assay with THP-1 [6] it was 7.64 µM; with HCT-116 [8], 5.16 µM.
For `COc1cc(/C=C/C(=O)/C=C/c2cccc3ccccc23)ccc1OCc1cn(CCN2C(=O)C(=O)c3ccccc32)nn1`, the inhibition of growth at 50 µM with HeLa came to 10%; with PC-3 [1] it was 77%; in the assay with CAKI-1 it was 14%; with COLO 205 [4], 80%; in assay [5], 11%; in the assay on A549, 10%. The inhibition of growth at 50 µM was 89% in the assay with HCT-116 [7] and 83% in the assay on THP-1 [9]. Moreover, the IC50 on Tubulin turned out to be 7.16 µM; with PC-3 [2] it was 8.54 µM; with COLO 205 [3], 7.99 µM; with THP-1 [6] it was 6.15 µM; with HCT-116 [8], 4.79 µM.
Regarding `COc1cc(/C=C/C(=O)/C=C/c2cc(OC)c(OC)c(OC)c2)ccc1OCc1cn(CCN2C(=O)C(=O)c3ccccc32)nn1`, the inhibition of growth at 50 µM is 20% in the assay with HeLa; 85% in the assay with PC-3 [1]; 25% in the assay with CAKI-1; 86% in the assay with COLO 205 [4]; 25% in assay [5]; 22% with A549. The inhibition of growth at 50 µM in the assay on HCT-116 [7] stood at 99%; with THP-1 [9], 89%. Besides, the IC50 on Tubulin was 2.36 µM; with PC-3 [2], 5.67 µM; in the assay on COLO 205 [3], 4.15 µM; in the assay with THP-1 [6], 2.87 µM; in the assay on HCT-116 [8], 1.12 µM. Also, in the assay with HCT-116 [10], the result was Active.
In the case of `COc1cc(/C=C/C(=O)/C=C/c2cc(OC)c(OC)c(OC)c2)ccc1OCc1cn(CCN2C(=O)C(=O)c3cc(Cl)ccc32)nn1`, the inhibition of growth at 50 µM is 15% in the assay on HeLa; 80% in the assay on PC-3 [1]; 13% in the assay with CAKI-1; 84% in the assay with COLO 205 [4]; 13% in [5]; 22% in the assay with A549. Moreover, the inhibition of growth at 50 µM in the assay on HCT-116 [7] worked out at 89%; with THP-1 [9] it was 86%. For the same compound, the IC50 worked out at 7.14 µM with PC-3 [2], 5.97 µM in the assay with COLO 205 [3], 4.56 µM with THP-1 [6] and 2.17 µM in the assay with HCT-116 [8].
Take `COc1ccccc1/C=C/C(=O)/C=C/c1ccc(OCc2cn(CCN3C(=O)C(=O)c4ccccc43)nn2)c(OC)c1`: the inhibition of growth at 50 µM in the assay with HeLa was determined as 12%; in the assay with PC-3 [1] it was 64%; with CAKI-1, 15%; in the assay on COLO 205 [4] it was 67%; in [5] it was 13%; in the assay with A549 it was 11%. Moreover, the inhibition of growth at 50 µM in the assay with HCT-116 [7] was found to be 75%; in the assay with THP-1 [9], 70%. In addition, the IC50 amounted to 8.97 µM in the assay on PC-3 [2], 8.16 µM with COLO 205 [3], 6.34 µM with THP-1 [6] and 4.56 µM with HCT-116 [8].
For `COc1cccc(/C=C/C(=O)/C=C/c2ccc(OCc3cn(CCN4C(=O)C(=O)c5ccccc54)nn3)c(OC)c2)c1`, the inhibition of growth at 50 µM with HeLa was 14%; in the assay on PC-3 [1], 66%; with CAKI-1, 17%; in the assay on COLO 205 [4], 69%; in assay [5], 15%; with A549, 13%. Further, the inhibition of growth at 50 µM with HCT-116 [7] came to 77%; in the assay with THP-1 [9], 70%. The IC50 was found to be 9.16 µM in the assay with PC-3 [2], 7.34 µM in the assay on COLO 205 [3], 4.41 µM in the assay with THP-1 [6] and 3.92 µM in the assay with HCT-116 [8].
Turning to `COc1cc(/C=C/C(=O)/C=C/c2cc(OC)c(OC)c(OC)c2)ccc1OCc1cn(CCN2C(=O)C(=O)c3cc(Br)ccc32)nn1`, the inhibition of growth at 50 µM stood at 15% in the assay on HeLa; 69% in the assay on PC-3 [1]; 12% in the assay on CAKI-1; 70% in the assay on COLO 205 [4]; 15% in assay [5]; 13% with A549. Also, the inhibition of growth at 50 µM in the assay on HCT-116 [7] was 75%; in the assay with THP-1 [9] it was 73%. In addition, the IC50 in the assay on PC-3 [2] turned out to be 6.44 µM; in the assay on COLO 205 [3], 5.29 µM; with THP-1 [6], 3.14 µM; in the assay on HCT-116 [8], 2.92 µM.
Take `COc1ccc(/C=C/C(=O)/C=C/c2ccc(OCc3cn(CCN4C(=O)C(=O)c5cc(Cl)ccc54)nn3)c(OC)c2)cc1OC`: the inhibition of growth at 50 µM with HeLa was 13%; in the assay with PC-3 [1] it was 73%; with CAKI-1, 10%; in the assay on COLO 205 [4], 75%; in assay [5] it was 12%; with A549, 17%. The inhibition of growth at 50 µM in the assay with HCT-116 [7] came to 79%; in the assay with THP-1 [9], 77%. The IC50 is 13.7 µM with PC-3 [2], 11.5 µM in the assay on COLO 205 [3], 9.33 µM in the assay with THP-1 [6] and 6.94 µM with HCT-116 [8].
For the compound `COc1ccc(/C=C/C(=O)/C=C/c2ccc(OCc3cn(CCN4C(=O)C(=O)c5ccccc54)nn3)c(OC)c2)cc1`, the inhibition of growth at 50 µM with HeLa was determined as 15%; with PC-3 [1], 70%; in the assay with CAKI-1, 20%; with COLO 205 [4], 72%; in assay [5], 17%; with A549 it was 15%. In addition, the inhibition of growth at 50 µM was determined as 81% in the assay on HCT-116 [7] and 75% in the assay on THP-1 [9]. The IC50 was 5.41 µM against Tubulin; 8.95 µM with PC-3 [2]; 6.72 µM with COLO 205 [3]; 4.96 µM in the assay with THP-1 [6]; 3.45 µM in the assay on HCT-116 [8].

The record behind these values is ChEMBL document CHEMBL3627713, “Triazole linked mono carbonyl curcumin-isatin bifunctional hybrids as novel anti tubulin agents: Design, synthesis, biological evaluation and molecular modeling studies” (Bioorg Med Chem, 2015).
